# pIC50, pKd: −log10 of the molar value. Where “and” joins values, the source holds several entries; their conditions need not be identical. Equal values may be shown once.
# Tests used:
# CDK12–cyclin K = CDK12–cyclin K (Homo sapiens, UniProt Q9NYV4); assay: Lanthascreen kinase binding assay, CDK12; settings: for Lanthascreen raw signal, sheet CDK12: duplicates
# Description: Lanthascreen experiments were performed using commercially available reagents (Thermo Fisher) and according to the manufacturer’s instructions.
# CDK12 = molecular target: CDK12; design: method as in PMID 30065029; settings: read-out: CDK12 binding affinity; cited from earlier work
# CDK12–cyclin K and DDB1 = molecular target: T1, CDK12–cyclin K and DDB1 (Homo sapiens, UniProt Q16531+Q9NYV4, K965R); assay: TR-FRET Kd determination, quadratic fit, 50 nM or 10 nM CDK12–cyclin K; assay type: binding
# T1 construct: His6–CDK12 (a.a. 713–1,052); full-length or beta-propeller B domain deletion (ΔBPB: a.a. 396–705 deleted) constructs of His6–DDB1ΔBPB, StrepII–Avi–DDB1, or His6–Spy–DDB1; made in house; host or cells: Trichoplusia ni High Five insect cells (baculovirus)
# Text: Equation (2) is a quadratic binding equation used for Kd determination,where Top and Bottom refer to the curve plateaus. […]
# [1] = compound 0.038147 nM, series r49
# [2] = compound 0.152588 nM, series r49
# [3] = compound 0.610352 nM, series r49
# [4] = compound 9.76563 nM, series r49
# [5] = compound 39.0625 nM, series r49
# Chain of CDK12–cyclin K (Q9NYV4 713-1052): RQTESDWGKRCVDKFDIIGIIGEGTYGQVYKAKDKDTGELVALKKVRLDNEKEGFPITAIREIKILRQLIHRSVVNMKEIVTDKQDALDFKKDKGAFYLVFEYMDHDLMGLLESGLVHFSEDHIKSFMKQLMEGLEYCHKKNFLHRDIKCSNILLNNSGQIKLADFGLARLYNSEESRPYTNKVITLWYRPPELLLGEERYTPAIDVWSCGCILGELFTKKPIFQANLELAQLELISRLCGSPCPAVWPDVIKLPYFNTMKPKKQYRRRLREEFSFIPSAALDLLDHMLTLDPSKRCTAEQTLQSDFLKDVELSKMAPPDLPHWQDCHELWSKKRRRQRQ
# Chain of CDK12–cyclin K (O75909 1-267 partner limits assumed): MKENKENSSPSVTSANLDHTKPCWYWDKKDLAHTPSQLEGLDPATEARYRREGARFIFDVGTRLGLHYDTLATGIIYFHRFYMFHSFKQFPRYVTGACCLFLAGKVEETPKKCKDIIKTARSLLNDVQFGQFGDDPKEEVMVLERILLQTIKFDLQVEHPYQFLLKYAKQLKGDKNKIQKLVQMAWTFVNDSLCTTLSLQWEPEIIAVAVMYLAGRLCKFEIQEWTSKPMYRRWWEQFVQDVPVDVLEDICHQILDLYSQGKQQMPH
# T1 sequence (Q9NYV4 713-1052 K965R): as the sequence (Q9NYV4 713-1052) above, with K253R counted along it
# T1 sequence (O75909 1-267 partner): as the sequence (O75909 1-267 partner limits assumed) above
# T1 sequence (Q16531 whole entry): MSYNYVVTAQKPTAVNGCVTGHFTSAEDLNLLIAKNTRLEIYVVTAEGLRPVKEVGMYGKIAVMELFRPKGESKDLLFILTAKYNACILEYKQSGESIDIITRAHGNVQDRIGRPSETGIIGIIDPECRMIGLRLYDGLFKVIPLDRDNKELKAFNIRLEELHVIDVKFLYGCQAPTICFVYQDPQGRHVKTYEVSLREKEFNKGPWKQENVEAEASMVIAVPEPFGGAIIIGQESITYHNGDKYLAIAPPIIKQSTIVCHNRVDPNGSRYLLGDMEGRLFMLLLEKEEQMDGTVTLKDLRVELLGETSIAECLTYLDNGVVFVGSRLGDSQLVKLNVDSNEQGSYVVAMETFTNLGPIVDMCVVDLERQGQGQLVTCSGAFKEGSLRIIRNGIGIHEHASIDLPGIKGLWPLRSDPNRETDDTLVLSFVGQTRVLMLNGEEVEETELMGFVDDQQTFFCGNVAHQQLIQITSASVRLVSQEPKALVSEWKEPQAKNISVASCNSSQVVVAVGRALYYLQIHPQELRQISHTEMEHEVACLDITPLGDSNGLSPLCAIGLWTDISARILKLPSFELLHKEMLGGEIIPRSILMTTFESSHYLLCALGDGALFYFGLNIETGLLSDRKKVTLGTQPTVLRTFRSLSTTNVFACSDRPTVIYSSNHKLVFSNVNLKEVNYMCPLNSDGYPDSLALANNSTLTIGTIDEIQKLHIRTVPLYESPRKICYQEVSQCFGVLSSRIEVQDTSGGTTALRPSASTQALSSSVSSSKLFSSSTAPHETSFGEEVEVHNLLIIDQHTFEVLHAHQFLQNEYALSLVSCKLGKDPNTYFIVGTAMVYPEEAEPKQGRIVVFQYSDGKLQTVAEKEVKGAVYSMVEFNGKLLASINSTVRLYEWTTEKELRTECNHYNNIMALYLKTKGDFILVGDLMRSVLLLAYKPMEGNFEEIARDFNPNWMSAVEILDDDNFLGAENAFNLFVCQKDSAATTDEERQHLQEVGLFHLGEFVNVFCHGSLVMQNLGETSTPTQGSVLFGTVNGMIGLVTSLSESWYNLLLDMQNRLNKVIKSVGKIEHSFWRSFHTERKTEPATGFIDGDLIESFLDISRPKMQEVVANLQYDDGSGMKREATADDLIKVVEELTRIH
smiles,measurement,setting,value
C[C@H](C(=O)Nc1nc2ccccc2[nH]1)N1Cc2ccccc2C1=O [compound 919278],pIC50,"CDK12–cyclin K; Lanthascreen, average, Extended Data Fig. 8, read-out: CDK12 IC50",5.87
same,"Lanthascreen raw signal, sheet CDK12","CDK12–cyclin K; compound 0.038147 nM, series r13",0.01141 and 0.01078
same,"Lanthascreen raw signal, sheet CDK12",CDK12–cyclin K; [1],0.007974 and 0.007894
same,"Lanthascreen raw signal, sheet CDK12","CDK12–cyclin K; compound 0.152588 nM, series r13",0.01172 and 0.01127
same,"Lanthascreen raw signal, sheet CDK12",CDK12–cyclin K; [2],0.009529 and 0.009772
same,"Lanthascreen raw signal, sheet CDK12","CDK12–cyclin K; compound 0.610352 nM, series r13",0.01156 and 0.01218
same,"Lanthascreen raw signal, sheet CDK12",CDK12–cyclin K; [3],0.00969 and 0.009867
same,"Lanthascreen raw signal, sheet CDK12","CDK12–cyclin K; compound 9.76563 nM, series r13",0.01168 and 0.01068
same,"Lanthascreen raw signal, sheet CDK12",CDK12–cyclin K; [4],0.008416 and 0.00874
same,"Lanthascreen raw signal, sheet CDK12","CDK12–cyclin K; compound 39.0625 nM, series r13",0.01187 and 0.01164
same,"Lanthascreen raw signal, sheet CDK12",CDK12–cyclin K; [5],0.009257 and 0.00975
same,"Lanthascreen raw signal, sheet CDK12","CDK12–cyclin K; compound 156.25 nM, series r13",0.01128 and 0.01164
same,"Lanthascreen raw signal, sheet CDK12","CDK12–cyclin K; compound 156.25 nM, series r49",0.009429 and 0.008734
same,"Lanthascreen raw signal, sheet CDK12","CDK12–cyclin K; compound 625 nM, series r13",0.01093 and 0.01047
same,"Lanthascreen raw signal, sheet CDK12","CDK12–cyclin K; compound 625 nM, series r49",0.007601 and 0.007861
same,"Lanthascreen raw signal, sheet CDK12","CDK12–cyclin K; compound 2500 nM, series r13",0.009465 and 0.008988
same,"Lanthascreen raw signal, sheet CDK12","CDK12–cyclin K; compound 2500 nM, series r49",0.006693 and 0.006957
same,"Lanthascreen raw signal, sheet CDK12","CDK12–cyclin K; compound 10000 nM, series r13",0.008087 and 0.007713
same,"Lanthascreen raw signal, sheet CDK12","CDK12–cyclin K; compound 10000 nM, series r49",0.006488 and 0.006166
same,pKd,CDK12,5.25
"CCC(CO)Nc1nc(NCc2ccc(-c3ccccn3)cc2)c2ncn(C(C)C)c2n1 (stereo not shown) [CR8, reference compound]","Lanthascreen raw signal, sheet CDK12","CDK12–cyclin K; compound 0.038147 nM, series r37",0.01304 and 0.01325
same,"Lanthascreen raw signal, sheet CDK12",CDK12–cyclin K; [1],0.007695 and 0.007446
same,"Lanthascreen raw signal, sheet CDK12","CDK12–cyclin K; compound 0.152588 nM, series r37",0.01428 and 0.01359
same,"Lanthascreen raw signal, sheet CDK12",CDK12–cyclin K; [2],0.009378 and 0.01005
same,"Lanthascreen raw signal, sheet CDK12","CDK12–cyclin K; compound 0.610352 nM, series r37",0.015 and 0.0141
same,"Lanthascreen raw signal, sheet CDK12",CDK12–cyclin K; [3],0.009165 and 0.0112
same,"Lanthascreen raw signal, sheet CDK12","CDK12–cyclin K; compound 0.76 nM, series r25",0.01077 and 0.009668
same,"Lanthascreen raw signal, sheet CDK12","CDK12–cyclin K; compound 1.02544 nM, series r1",0.009016 and 0.007993
same,"Lanthascreen raw signal, sheet CDK12","CDK12–cyclin K; compound 3.15521 nM, series r1",0.009443 and 0.008694
same,"Lanthascreen raw signal, sheet CDK12","CDK12–cyclin K; compound 4.57247 nM, series r25",0.009656 and 0.009902
same,"Lanthascreen raw signal, sheet CDK12","CDK12–cyclin K; compound 9.46563 nM, series r1",0.008963 and 0.008112
same,"Lanthascreen raw signal, sheet CDK12","CDK12–cyclin K; compound 9.76563 nM, series r37",0.01368 and 0.01299
same,"Lanthascreen raw signal, sheet CDK12",CDK12–cyclin K; [4],0.009408 and 0.009212
same,"Lanthascreen raw signal, sheet CDK12","CDK12–cyclin K; compound 13.7174 nM, series r25",0.01017 and 0.01059
same,"Lanthascreen raw signal, sheet CDK12","CDK12–cyclin K; compound 31.5521 nM, series r1",0.006752 and 0.007539
same,"Lanthascreen raw signal, sheet CDK12","CDK12–cyclin K; compound 39.0625 nM, series r37",0.01193 and 0.01223
same,"Lanthascreen raw signal, sheet CDK12",CDK12–cyclin K; [5],0.009305 and 0.008784
same,"Lanthascreen raw signal, sheet CDK12","CDK12–cyclin K; compound 41.1523 nM, series r25",0.009709 and 0.009531
same,"Lanthascreen raw signal, sheet CDK12","CDK12–cyclin K; compound 99.3891 nM, series r1",0.006201 and 0.006527
same,"Lanthascreen raw signal, sheet CDK12","CDK12–cyclin K; compound 123.457 nM, series r25",0.008131 and 0.007441
same,"Lanthascreen raw signal, sheet CDK12","CDK12–cyclin K; compound 156.25 nM, series r37",0.00959 and 0.00993
same,"Lanthascreen raw signal, sheet CDK12","CDK12–cyclin K; compound 156.25 nM, series r49",0.007819 and 0.007288
same,"Lanthascreen raw signal, sheet CDK12","CDK12–cyclin K; compound 315.521 nM, series r1",0.007121 and 0.006383
same,"Lanthascreen raw signal, sheet CDK12","CDK12–cyclin K; compound 370.37 nM, series r25",0.007201 and 0.007104
same,"Lanthascreen raw signal, sheet CDK12","CDK12–cyclin K; compound 625 nM, series r37",0.007458 and 0.007383
same,"Lanthascreen raw signal, sheet CDK12","CDK12–cyclin K; compound 625 nM, series r49",0.006302 and 0.006427
same,"Lanthascreen raw signal, sheet CDK12","CDK12–cyclin K; compound 2500 nM, series r37",0.006338 and 0.006017
same,"Lanthascreen raw signal, sheet CDK12","CDK12–cyclin K; compound 2500 nM, series r49",0.006233 and 0.005662
same,"Lanthascreen raw signal, sheet CDK12","CDK12–cyclin K; compound 3155.21 nM, series r1",0.005736 and 0.005607
same,"Lanthascreen raw signal, sheet CDK12","CDK12–cyclin K; compound 3333.33 nM, series r25",0.00631 and 0.006815
same,"Lanthascreen raw signal, sheet CDK12","CDK12–cyclin K; compound 10000 nM, series r25",0.004829 and 0.005941
same,"Lanthascreen raw signal, sheet CDK12","CDK12–cyclin K; compound 10000 nM, series r37",0.006588 and 0.005825
same,"Lanthascreen raw signal, sheet CDK12","CDK12–cyclin K; compound 10000 nM, series r49",0.006042 and 0.005923
same,"Lanthascreen raw signal, sheet CDK12","CDK12–cyclin K; compound 10002 nM, series r1",0.006385 and 0.006398
same,TR-FRET signal,"CDK12–cyclin K and DDB1; 10 nM CDK12-cyclin K, compound 0.468 nM",0.1037
same,TR-FRET signal,"CDK12–cyclin K and DDB1; 10 nM CDK12-cyclin K, compound 2.16 nM",0.135
same,TR-FRET signal,"CDK12–cyclin K and DDB1; 10 nM CDK12-cyclin K, compound 3.6 nM",0.1982
same,TR-FRET signal,"CDK12–cyclin K and DDB1; 10 nM CDK12-cyclin K, compound 7.92 nM",0.284
same,TR-FRET signal,"CDK12–cyclin K and DDB1; 10 nM CDK12-cyclin K, compound 15.84 nM",0.3713
same,TR-FRET signal,"CDK12–cyclin K and DDB1; 10 nM CDK12-cyclin K, compound 30.96 nM",0.4536
same,TR-FRET signal,"CDK12–cyclin K and DDB1; 10 nM CDK12-cyclin K, compound 62.6399 nM",0.4778
same,TR-FRET signal,"CDK12–cyclin K and DDB1; 10 nM CDK12-cyclin K, compound 125.279 nM",0.4982
same,TR-FRET signal,"CDK12–cyclin K and DDB1; 10 nM CDK12-cyclin K, compound 244.8 nM",0.5242
same,TR-FRET signal,"CDK12–cyclin K and DDB1; 10 nM CDK12-cyclin K, compound 993.6 nM",0.5359
same,TR-FRET signal,"CDK12–cyclin K and DDB1; 10 nM CDK12-cyclin K, compound 2001.6 nM",0.5508
same,TR-FRET signal,"CDK12–cyclin K and DDB1; 50 nM CDK12-cyclin K, compound 0.468 nM",0.2224
same,TR-FRET signal,"CDK12–cyclin K and DDB1; 50 nM CDK12-cyclin K, compound 2.16 nM",0.2548
same,TR-FRET signal,"CDK12–cyclin K and DDB1; 50 nM CDK12-cyclin K, compound 3.6 nM",0.3253
same,TR-FRET signal,"CDK12–cyclin K and DDB1; 50 nM CDK12-cyclin K, compound 7.92 nM",0.4723
same,TR-FRET signal,"CDK12–cyclin K and DDB1; 50 nM CDK12-cyclin K, compound 15.84 nM",0.7533
same,TR-FRET signal,"CDK12–cyclin K and DDB1; 50 nM CDK12-cyclin K, compound 30.96 nM",1.3518
same,TR-FRET signal,"CDK12–cyclin K and DDB1; 50 nM CDK12-cyclin K, compound 62.6399 nM",2.31
same,TR-FRET signal,"CDK12–cyclin K and DDB1; 50 nM CDK12-cyclin K, compound 125.279 nM",2.851
same,TR-FRET signal,"CDK12–cyclin K and DDB1; 50 nM CDK12-cyclin K, compound 244.8 nM",2.999
same,TR-FRET signal,"CDK12–cyclin K and DDB1; 50 nM CDK12-cyclin K, compound 993.6 nM",3.086
same,TR-FRET signal,"CDK12–cyclin K and DDB1; 50 nM CDK12-cyclin K, compound 2001.6 nM",3.013

# From publication PMC10746543, “Design principles for cyclin K molecular glue degraders” (Nature Chemical Biology, 2023)
